Measurements as given in PMC3483018 (Journal of Medicinal Chemistry, 2012).
Like-named read-outs stand apart in the source and are kept apart here. Values belong to the molecule of their own block, whether it stands above or below them.

Columns and labels:
[1] = pKa measurement; type: physicochemical
[2] = test system: SW620 human colon cancer cell; conditions: read-out: SW620 GI50; cited from earlier work
[3] = molecular target: hERG (Homo sapiens, UniProt Q12809); assay: in vitro
[4] = type: in vitro ADME; conditions: mouse liver microsomes, 10 μM
[5] = type: in vitro ADME; conditions: human liver microsomes, 10 μM
[6] = test system: histone H-3 phosphorylation at S10; assay: PK/PD study, tumor biomarker; type: in vivo, mouse; conditions: 50 and 100 mg/kg po b.i.d. 4 days, 2 h after the final dose
[7] = test system: MV4–11 human FLT3-ITD positive AML tumor xenografts; conditions: for days on which individual mice were culled (tumor volume increased by over 500%): control culled day 18
[8] = Caco-2 assay; type: in vitro ADME
[9] = In vivo rat PK; conditions: female, Sprague-Dawley, plasma, iv, 5 mg/kg
[10] = test system: Stat5 phosphorylation at Y694; assay: PK/PD study, tumor biomarker; type: in vivo, mouse; conditions: 50 and 100 mg/kg po b.i.d. 4 days, 2 h after the final dose

hERG, sequence (Q12809 whole entry): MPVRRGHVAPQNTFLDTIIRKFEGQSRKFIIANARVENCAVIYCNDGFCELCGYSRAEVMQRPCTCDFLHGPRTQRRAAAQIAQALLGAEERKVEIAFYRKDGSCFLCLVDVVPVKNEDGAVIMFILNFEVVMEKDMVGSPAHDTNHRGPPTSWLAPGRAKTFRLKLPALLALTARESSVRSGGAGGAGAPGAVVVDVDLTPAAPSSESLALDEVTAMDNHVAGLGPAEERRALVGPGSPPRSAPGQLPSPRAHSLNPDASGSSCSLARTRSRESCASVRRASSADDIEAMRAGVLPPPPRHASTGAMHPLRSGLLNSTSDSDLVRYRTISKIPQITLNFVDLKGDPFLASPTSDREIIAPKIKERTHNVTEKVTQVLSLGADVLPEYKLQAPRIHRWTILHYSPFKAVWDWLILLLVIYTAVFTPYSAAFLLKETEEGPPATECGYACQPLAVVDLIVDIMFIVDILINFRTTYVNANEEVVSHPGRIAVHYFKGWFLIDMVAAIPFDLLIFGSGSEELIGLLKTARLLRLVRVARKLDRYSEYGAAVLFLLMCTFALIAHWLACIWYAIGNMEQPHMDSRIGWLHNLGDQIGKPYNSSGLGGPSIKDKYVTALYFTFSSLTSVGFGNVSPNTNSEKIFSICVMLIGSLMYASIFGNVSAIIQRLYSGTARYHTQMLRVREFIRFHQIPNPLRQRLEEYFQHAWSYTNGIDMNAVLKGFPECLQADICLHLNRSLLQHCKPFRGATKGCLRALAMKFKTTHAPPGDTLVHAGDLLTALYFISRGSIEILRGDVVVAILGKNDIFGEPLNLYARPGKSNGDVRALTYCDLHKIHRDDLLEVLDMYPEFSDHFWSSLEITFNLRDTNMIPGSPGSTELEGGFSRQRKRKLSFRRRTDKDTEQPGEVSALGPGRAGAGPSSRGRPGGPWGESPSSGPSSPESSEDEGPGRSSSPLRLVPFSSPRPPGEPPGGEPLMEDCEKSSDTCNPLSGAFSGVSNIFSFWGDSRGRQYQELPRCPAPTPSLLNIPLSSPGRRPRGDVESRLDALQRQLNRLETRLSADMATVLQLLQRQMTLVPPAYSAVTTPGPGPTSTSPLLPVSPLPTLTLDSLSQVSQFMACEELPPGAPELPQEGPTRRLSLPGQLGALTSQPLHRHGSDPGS

Compound: COc1ccc(-c2nc3c(N4CCN(Cc5cc(C)on5)CC4)c(Br)cnc3[nH]2)cc1 [6-bromo-2-(4-methoxyphenyl)-7-[4-(5-methyl-isoxazol-3-ylmethyl)-piperazin-1-yl]-3H-imidazo[4,5-b]pyridine]
pKa ([1]; acidic pKa of the imidazopyridine N3 proton): 9.51 | pKa ([1]; pKa of the piperazine nitrogen bearing the 5-methylisoxazol-3-yl substituent): 5.39

Compound: Cc1cc(CN2CCN(c3c(Br)cnc4nc(-c5ccc(N6CCN(C)CC6)cc5)[nH]c34)CC2)no1 [Compound 6]
GI50 [2]: 300 nM

Compound: Cc1cc(CN2CCN(c3c(Br)cnc4nc(-c5cncn5C)[nH]c34)CC2)no1 [Compound 21a, 3-((4-(6-Bromo-2-(1-methyl-1H-imidazol-5-yl)-3H-imidazo[4,5-b]pyridin-7-yl)piperazin-1-yl)methyl)-5-methylisoxazole]
inhibition at 10 µM [3]: 94%

MLM: Percentage of parent compound metabolized after a 30 min incubation [4]: 20% | HLM: Percentage of parent compound metabolized after a 30 min incubation [5]: 10%
Compound: Cc1cc(CN2CCN(c3c(Cl)cnc4nc(-c5cnn(C)c5)[nH]c34)CC2)no1 [Compound 21i, 3-((4-(6-Chloro-2-(1-methyl-1H-pyrazol-4-yl)-3H-imidazo[4,5-b]pyridin-7-yl)piperazin-1-yl)methyl)-5-methylisoxazole]
inhibition at 10 µM [3]: 67%

Compound: Cc1nn(C)cc1-c1nc2c(N3CCN(Cc4ccc(Cl)cc4)CC3)c(Cl)cnc2[nH]1 [Compound 27e, 6-Chloro-7-(4-(4-chlorobenzyl)piperazin-1-yl)-2-(1,3-dimethyl-1H-pyrazol-4-yl)-3H-imidazo[4,5-b]pyridine]
inhibition of histone H-3 phosphorylation in tumor [6]: clear inhibition | days on which individual mice were culled (tumor volume increased by over 500%) ([7]; 50 mg/kg): days 28 and 31 | tumors when therapy discontinued ([7]; 100 mg/kg po b.i.d., after 11 days): undetectable | days on which individual mice were culled (tumor volume increased by over 500%) ([7]; 100 mg/kg): days 46 and 56 | toxicity as defined by body weight loss and general condition ([7]; 50 and 100 mg/kg po): no observed toxicity | Caco-2 efflux [8]: no efflux | Vd [9]: 0.369 L | inhibition of Stat5 phosphorylation in tumor [10]: clear inhibition
